Data as given in ChEMBL document CHEMBL1909046, “DrugMatrix in vitro pharmacology data”.

Key:
[1] = DRUGMATRIX: Atrial Natriuretic Factor (ANF) radioligand binding (ligand: [125I] ANF (rat)); format: cell membranes, Cavia porcellus, Dunkin-Hartley, Adrenal gland, Membrane; settings: Not Active = under 50% inhibition at 10 µM
[2] = DRUGMATRIX: Nicotinic Acetylcholine radioligand binding (ligand: [125I] Epibatidine); format: cell membranes, Membrane; settings: imr-32; Not Active = under 50% inhibition at 10 µM
[3] = DRUGMATRIX: Interleukin IL-1 radioligand binding (ligand: [125I] interleukin 1beta); format: cell membranes, Membrane; settings: nih3t3; Not Active = under 50% inhibition at 10 µM
[4] = target: T1, Type-2 angiotensin II receptor (Homo sapiens, UniProt P50052); format: cell-based; settings: cho-k1; further: in other assays of this panel Not Active means under 50% inhibition at 10 µM
T1 sequence (P50052 whole entry): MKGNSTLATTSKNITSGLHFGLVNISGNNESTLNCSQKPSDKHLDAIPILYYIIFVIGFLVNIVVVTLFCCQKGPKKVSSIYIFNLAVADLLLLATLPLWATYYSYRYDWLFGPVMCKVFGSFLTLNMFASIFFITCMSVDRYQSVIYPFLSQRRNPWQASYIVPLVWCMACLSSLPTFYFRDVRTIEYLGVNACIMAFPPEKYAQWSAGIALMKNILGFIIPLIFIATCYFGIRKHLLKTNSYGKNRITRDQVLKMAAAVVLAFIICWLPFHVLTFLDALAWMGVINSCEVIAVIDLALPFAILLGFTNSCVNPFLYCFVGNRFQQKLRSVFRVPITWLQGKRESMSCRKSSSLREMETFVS

Interstitial collagenase = target: T2, Interstitial collagenase (Homo sapiens, UniProt P03956); assay: biochemical; format: tissue-based, Rheumatoid synovial fibroblasts;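 further: MMP-1 enzyme inhibition assay using a peptide substrate; in other assays of this panel Not Active means under 50% inhibition at 10 µM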
T2 sequence (P03956 whole entry): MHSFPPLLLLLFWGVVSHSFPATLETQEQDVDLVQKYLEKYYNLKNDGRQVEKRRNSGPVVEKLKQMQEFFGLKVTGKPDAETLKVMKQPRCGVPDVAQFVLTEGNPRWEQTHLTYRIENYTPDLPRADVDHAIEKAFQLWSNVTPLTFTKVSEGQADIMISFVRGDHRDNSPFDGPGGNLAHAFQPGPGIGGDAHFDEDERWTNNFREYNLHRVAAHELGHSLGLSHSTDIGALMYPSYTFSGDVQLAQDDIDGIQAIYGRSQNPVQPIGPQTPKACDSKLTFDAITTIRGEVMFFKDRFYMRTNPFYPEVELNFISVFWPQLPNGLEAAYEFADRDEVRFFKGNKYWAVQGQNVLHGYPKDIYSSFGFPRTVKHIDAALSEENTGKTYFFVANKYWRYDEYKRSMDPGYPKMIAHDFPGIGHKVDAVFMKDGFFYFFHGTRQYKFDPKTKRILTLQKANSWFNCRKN

[5] = DRUGMATRIX: Leukotriene, BLT (LTB4) radioligand binding (ligand: [3H]LTB4); format: cell membranes, Membrane; settings: u-937; Not Active = under 50% inhibition at 10 µM
[6] = target: Kappa-type opioid receptor (Homo sapiens, UniProt P41145); assay: DRUGMATRIX: Opiate kappa (OP2, KOP) radioligand binding (ligand: [3H] Diprenorphine); format: cell membranes, HEK293, Membrane; settings: hek293; Not Active = under 50% inhibition at 10 µM
Sequence of Kappa-type opioid receptor (P41145 whole entry): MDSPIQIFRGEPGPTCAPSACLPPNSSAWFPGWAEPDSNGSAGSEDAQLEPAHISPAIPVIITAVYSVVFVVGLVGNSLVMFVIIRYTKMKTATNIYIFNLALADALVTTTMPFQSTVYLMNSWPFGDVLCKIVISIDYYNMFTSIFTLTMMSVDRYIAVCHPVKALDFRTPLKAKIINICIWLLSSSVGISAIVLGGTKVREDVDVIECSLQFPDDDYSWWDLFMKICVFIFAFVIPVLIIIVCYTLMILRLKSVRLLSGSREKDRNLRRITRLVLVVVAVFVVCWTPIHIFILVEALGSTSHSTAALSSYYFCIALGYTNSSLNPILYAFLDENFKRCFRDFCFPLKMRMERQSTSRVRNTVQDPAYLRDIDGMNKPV

[7] = target: T3, 3-hydroxy-3-methylglutaryl-coenzyme A reductase (Homo sapiens, UniProt P04035); set-up: species or system Escherichia coli;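 further: enzyme inhibition assay of HMG-CoA reductase using radiolabeled [14C]HMG-CoA as substrate; in other assays of this panel Not Active means under 50% inhibition at 10 µM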
T3 sequence (P04035 whole entry): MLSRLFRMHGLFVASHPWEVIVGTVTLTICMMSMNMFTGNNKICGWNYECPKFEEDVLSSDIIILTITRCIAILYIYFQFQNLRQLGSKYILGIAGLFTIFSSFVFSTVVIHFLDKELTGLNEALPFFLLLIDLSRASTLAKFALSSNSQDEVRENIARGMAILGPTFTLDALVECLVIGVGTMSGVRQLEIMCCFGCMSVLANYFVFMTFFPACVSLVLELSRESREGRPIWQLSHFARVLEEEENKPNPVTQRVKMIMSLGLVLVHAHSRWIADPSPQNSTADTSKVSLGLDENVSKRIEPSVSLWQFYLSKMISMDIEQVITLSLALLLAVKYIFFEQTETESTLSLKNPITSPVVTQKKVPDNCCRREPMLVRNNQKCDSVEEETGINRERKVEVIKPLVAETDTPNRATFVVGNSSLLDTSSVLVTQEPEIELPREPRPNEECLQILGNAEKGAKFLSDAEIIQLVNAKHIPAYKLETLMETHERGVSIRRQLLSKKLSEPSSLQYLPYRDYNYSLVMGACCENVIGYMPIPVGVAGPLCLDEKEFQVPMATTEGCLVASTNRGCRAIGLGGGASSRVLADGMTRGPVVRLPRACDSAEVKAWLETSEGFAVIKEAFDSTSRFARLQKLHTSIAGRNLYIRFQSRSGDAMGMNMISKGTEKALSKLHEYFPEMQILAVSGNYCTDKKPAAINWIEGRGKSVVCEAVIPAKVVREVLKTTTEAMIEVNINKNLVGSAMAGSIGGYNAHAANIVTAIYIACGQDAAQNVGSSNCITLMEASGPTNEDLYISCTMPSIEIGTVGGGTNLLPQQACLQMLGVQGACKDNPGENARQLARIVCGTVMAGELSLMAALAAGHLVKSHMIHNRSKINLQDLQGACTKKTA

CCOC(=O)[C@H](CCc1ccccc1)N[C@H]1CCc2ccccc2N(CC(=O)O)C1=O [BENAZEPRIL]
Not Active: IC50 [1] | Ki [1] | IC50 [2] | Ki [2] | IC50 [3] | Ki [3] | IC50 [4] | IC50 (Interstitial collagenase) | IC50 [5] | Ki [5] | IC50 [6] | IC50 [7]

Nc1c(CC(=O)O)cccc1C(=O)c1ccc(Br)cc1 [BROMFENAC]
Not Active: IC50 [1] | Ki [1] | IC50 [2] | Ki [2] | IC50 [3] | Ki [3] | IC50 [4] | IC50 (Interstitial collagenase) | IC50 [5] | Ki [5] | IC50 [6] | IC50 [7]

CCCCN1CCCCC1C(=O)Nc1c(C)cccc1C.Cl (centres undefined) [BUPIVACAINE HYDROCHLORIDE]
Not Active: IC50 [1] | Ki [1] | IC50 [2] | Ki [2] | IC50 [3] | Ki [3] | IC50 [4] | IC50 (Interstitial collagenase) | IC50 [5] | Ki [5] | IC50 [6] | IC50 [7]

O=C1CC2(CCCC2)CC(=O)N1CCCCN1CCN(c2ncccn2)CC1 [BUSPIRONE]
Not Active: IC50 [1] | Ki [1] | IC50 [2] | Ki [2] | IC50 [3] | Ki [3] | IC50 [4] | IC50 (Interstitial collagenase) | IC50 [5] | Ki [5] | IC50 [6] | IC50 [7]

O=NN(CCCl)C(=O)NCCCl [CARMUSTINE]
Not Active: IC50 [1] | Ki [1] | IC50 [2] | Ki [2] | IC50 [3] | Ki [3] | IC50 [4] | IC50 (Interstitial collagenase) | IC50 [5] | Ki [5] | IC50 [6] | IC50 [7]

CC1=C(C(=O)O)N2C(=O)[C@@H](NC(=O)[C@H](N)c3ccccc3)[C@H]2SC1 [CEPHALEXIN ANHYDROUS]
Not Active: IC50 [1] | Ki [1] | IC50 [2] | Ki [2] | IC50 [3] | Ki [3] | IC50 [4] | IC50 (Interstitial collagenase) | IC50 [5] | Ki [5] | IC50 [6] | IC50 [7]

O=C(N[C@H](CO)[C@H](O)c1ccc([N+](=O)[O-])cc1)C(Cl)Cl [CHLORAMPHENICOL]
Not Active: IC50 [1] | Ki [1] | IC50 [2] | Ki [2] | IC50 [3] | Ki [3] | IC50 [4] | IC50 (Interstitial collagenase) | IC50 [5] | Ki [5] | IC50 [6] | IC50 [7]

ClC(Cl)Cl [CHLOROFORM]
Not Active: IC50 [1] | Ki [1] | IC50 [2] | Ki [2] | IC50 [3] | Ki [3] | IC50 [4] | IC50 (Interstitial collagenase) | IC50 [5] | Ki [5] | IC50 [6] | IC50 [7]

C=C1CC[C@H](O)C/C1=C/C=C1\CCC[C@]2(C)[C@@H]([C@H](C)CCCC(C)C)CC[C@@H]12 [CHOLECALCIFEROL]
Not Active: IC50 [1] | Ki [1] | IC50 [2] | Ki [2] | IC50 [3] | Ki [3] | IC50 [4] | IC50 (Interstitial collagenase) | IC50 [5] | Ki [5] | IC50 [6] | IC50 [7]

C[N+](C)(C)CCO.[Cl-] [CHOLINE CHLORIDE]
Not Active: IC50 [1] | Ki [1] | IC50 [2] | Ki [2] | IC50 [3] | Ki [3] | IC50 [4] | IC50 (Interstitial collagenase) | IC50 [5] | Ki [5] | IC50 [6] | IC50 [7]

CCOC(=O)C(C)(C)Oc1ccc(Cl)cc1 [CLOFIBRATE]
Not Active: IC50 [1] | Ki [1] | IC50 [2] | Ki [2] | IC50 [3] | Ki [3] | IC50 [4] | IC50 (Interstitial collagenase) | IC50 [5] | Ki [5] | IC50 [6] | IC50 [7]

CC(=O)OCC(=O)[C@@]1(O)CC[C@H]2[C@@H]3CCC4=CC(=O)CC[C@]4(C)[C@H]3C(=O)C[C@@]21C [CORTISONE ACETATE]
Not Active: IC50 [1] | Ki [1] | IC50 [2] | Ki [2] | IC50 [3] | Ki [3] | IC50 [4] | IC50 (Interstitial collagenase) | IC50 [5] | Ki [5] | IC50 [6] | IC50 [7]

O=c1ccc2ccccc2o1 [COUMARIN]
Not Active: IC50 [1] | Ki [1] | IC50 [2] | Ki [2] | IC50 [3] | Ki [3] | IC50 [4] | IC50 (Interstitial collagenase) | IC50 [5] | Ki [5] | IC50 [6] | IC50 [7]

C/C=C/C[C@@H](C)[C@@H](O)[C@H]1C(=O)N[C@@H](CC)C(=O)N(C)CC(=O)N(C)[C@@H](CC(C)C)C(=O)N[C@@H](C(C)C)C(=O)N(C)[C@@H](CC(C)C)C(=O)N[C@@H](C)C(=O)N[C@H](C)C(=O)N(C)[C@@H](CC(C)C)C(=O)N(C)[C@@H](CC(C)C)C(=O)N(C)[C@@H](C(C)C)C(=O)N1C [CYCLOSPORINE]
Not Active: IC50 [1] | Ki [1] | IC50 [2] | Ki [2] | IC50 [3] | Ki [3] | IC50 [4] | IC50 (Interstitial collagenase) | IC50 [5] | Ki [5] | IC50 [6] | IC50 [7]

CN(C)/N=N/c1[nH]cnc1C(N)=O [DACARBAZINE]
Not Active: IC50 [1] | Ki [1] | IC50 [2] | Ki [2] | IC50 [3] | Ki [3] | IC50 [4] | IC50 (Interstitial collagenase) | IC50 [5] | Ki [5] | IC50 [6] | IC50 [7]

COc1ccc2c(c1)[C@]13CCCC[C@@H]1[C@H](C2)N(C)CC3 [DEXTROMETHORPHAN]
Not Active: IC50 [1] | Ki [1] | IC50 [2] | Ki [2] | IC50 [3] | Ki [3] | IC50 [4] | IC50 (Interstitial collagenase) | IC50 [5] | Ki [5] | IC50 [6] | IC50 [7]

CC(=O)Nc1c(I)c(NC(C)=O)c(I)c(C(=O)O)c1I [DIATRIZOIC ACID]
Not Active: IC50 [1] | Ki [1] | IC50 [2] | Ki [2] | IC50 [3] | Ki [3] | IC50 [4] | IC50 (Interstitial collagenase) | IC50 [5] | Ki [5] | IC50 [6] | IC50 [7]
